For data set [1], the target named is T1, human adenosine A2A receptor (Homo sapiens, UniProt P29274).
T1 construct: expressed in transfected cells; host or cells: CHO cells, semliki forest virus expression system; membrane preparation
The experiment in a line: [3H]-SCH-58261 binding assay on human adenosine A2A receptor expressed in CHO cell membranes (SPA). The settings on record: displacement of [3H]-SCH-58261 (1 nM); recombinant receptor in CHO membranes; Ki by Cheng-Prussoff equation; read-out: hA2 (pKi) (converted). The procedure:
Human Adenosine A2A Receptor
The human adenosine A2A receptor was recombinantly expressed in Chinese hamster ovary (CHO) cells using the semliki forest virus expression system. Cells were harvested, washed twice by centrifugation, homogenized and again washed by centrifugation. The final washed membrane pellet was suspended in a Tris (50 mM) buffer containing 120 mM NaCl, 5 mM KCl, 2 mM CaCl2 and 10 mM MgCl2 (pH 7.4) (buffer A). The [^3H]-SCH-58261 (Dionisotti et al., 1997, Br J Pharmacol 121, 353; 1 nM) binding assay was carried out in 96-well plates in the presence of 2.5 μg of membrane protein, 0.5 mg of Ysi-poly-1-lysine SPA beads and 0.1 U adenosine deaminase in a final volume of 200 μl of buffer A. Non-specific binding was defined using xanthine amine congener (XAC; 2 μM). Compounds were tested at 10 concentrations from 10 μM-0.3 nM. All assays were conducted in duplicate and repeated at least two times. Assay plates were incubated for 1 hour at room temperature before centrifugation and then bound ligand determined using a Packard Topcount scintillation counter. IC50 values were calculated using a non-linear curve fitting program and Ki values calculated using the Cheng-Prussoff equation.

T1 sequence (P29274 whole entry): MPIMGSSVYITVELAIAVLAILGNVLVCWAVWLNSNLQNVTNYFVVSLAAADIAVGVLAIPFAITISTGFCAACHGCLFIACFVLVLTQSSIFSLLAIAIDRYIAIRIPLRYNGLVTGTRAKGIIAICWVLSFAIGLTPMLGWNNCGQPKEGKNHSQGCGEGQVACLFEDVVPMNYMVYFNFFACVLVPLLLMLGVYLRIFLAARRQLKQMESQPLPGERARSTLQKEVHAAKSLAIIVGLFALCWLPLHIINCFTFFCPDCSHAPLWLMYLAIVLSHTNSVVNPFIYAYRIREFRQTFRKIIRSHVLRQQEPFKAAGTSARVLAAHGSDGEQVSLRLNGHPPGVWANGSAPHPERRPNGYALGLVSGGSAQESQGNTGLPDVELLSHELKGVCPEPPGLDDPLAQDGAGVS

With `COCc1ncc(C(=O)Nc2nc3c(OC)ccc(N4CCOCC4)c3s2)n1C` [Example 9, 2-Methoxymethyl-3-methyl-3H-imidazole-4-carboxylic acid (4-methoxy-7-morpholin-4-yl-benzothiazol-2-yl)-amide], the melting point fell in the range of 242 to 245 °C. Further, in data set [1], the Ki is 0.501 nM.

Take `COc1ccc(N2CCOCC2)c2sc(NC(=O)c3cnn(CCN(C)C)c3)nc12` [Example 6, 1-(2-Dimethylamino-ethyl)-1H-pyrazole-4-carboxylic acid (4-methoxy-7-morpholin-4-yl-benzothiazol-2-yl)-amide]: the melting point was 203 to 205 °C. The Ki in data set [1] was 0.794 nM.

As to `COCCn1cc(C(=O)Nc2nc3c(OC)ccc(N4CCOCC4)c3s2)cn1` [Example 8, 1-(2-Methoxy-ethyl)-1H-pyrazole-4-carboxylic acid (4-methoxy-7-morpholin-4-yl-benzothiazol-2-yl)-amide], the Ki in data set [1] is 0.398 nM.

For the compound `COc1ccc(N2CCOCC2)c2sc(NC(=O)c3cnc(CN4CCOCC4)n3C)nc12` [Example 3, 3-Methyl-2-morpholin-4-ylmethyl-3H-imidazole-4-carboxylic acid (4-methoxy-7-morpholin-4-yl-benzothiazol-2-yl)-amide], the melting point is 244 to 246 °C. The Ki in data set [1] was 0.631 nM.

`COCCN(C)Cc1ncc(C(=O)Nc2nc3c(OC)ccc(N4CCOCC4)c3s2)n1C` [Example 1, 2-{[(2-Methoxy-ethyl)-methyl-amino]-methyl}-3-methyl-3H-imidazole-4-carboxylic acid (4-methoxy-7-morpholin-4-yl-benzothiazol-2-yl)-amide] came in with a melting point of 176 to 178 °C. Also, in data set [1], the Ki is 0.501 nM.

`COc1ccc(N2CCOCC2)c2sc(NC(=O)c3cnc(CN4CCCC4)n3C)nc12` [Example 4, 3-Methyl-2-pyrrolidin-1-ylmethyl-3H-imidazole-4-carboxylic acid (4-methoxy-7-morpholin-4-yl-benzothiazol-2-yl)-amide] registered a melting point of 255 °C. The Ki in data set [1] is 1.58 nM.

In turn, `COc1ccc(N2CCOCC2)c2sc(NC(=O)c3cnn(CCN4CCCC4)c3)nc12` [Example 5, 1-(2-Pyrrolidin-1-yl-ethyl)-1H-pyrazole-4-carboxylic acid (4-methoxy-7-morpholin-4-yl-benzothiazol-2-yl)-amide] came in with a melting point of 190 to 192 °C. In data set [1], the Ki was 0.794 nM.

In turn, `COc1ccc(N2CCOCC2)c2sc(NC(=O)c3cnc(CN(C)C)n3C)nc12` [Example 2, 2-Dimethylaminomethyl-3-methyl-3H-imidazole-4-carboxylic acid (4-methoxy-7-morpholin-4-yl-benzothiazol-2-yl)-amide] had a melting point of 229 to 231 °C. The Ki in data set [1] is 0.631 nM.

On to `COc1ccc(N2CCOCC2)c2sc(NC(=O)c3cnn(CCN4CCOCC4)c3)nc12` [Example 7, 1-(2-Morpholin-4-yl-ethyl)-1H-pyrazole-4-carboxylic acid (4-methoxy-7-morpholin-4-yl-benzothiazol-2-yl)-amide], for which the melting point is 204 to 207 °C. The Ki in data set [1] is 1 nM.

(Values after patent publication US7371749B2, “Benzothiazole derivatives” (Hoffmann-La Roche Inc., priority 2004, dated 2008).)
